# Data reported in patent US8258159B2, “Inhibitors of the α2β1/GPIa-IIa integrin” (The Trustees Of The University Of Pennsylvania, priority 2005, dated 2012).
# Where two headings read alike, the source gives them in different places. *1 amine or outer side, *2 acyl side, *3 side chain or, on linkers, in order; H or OH if unused. Where a SMILES comes first, the peptide text is derived from it. Side-chain parts run from the residue outwards. [ ]: non-standard residue; d: D form. The star is where a group is joined. Tos = Cc1ccc(S(=O)(=O)*)cc1; Dap = NC[C@H](N)C(=O)O; CO = O=C([*:1])[*:2]; NHBn = c1ccc(CN*)cc1
# What was measured:
# Type in all cases: cell-based
# α2β1 integrin = target: T1, α2β1 integrin (Homo sapiens, UniProt P05556+P17301); test: Platelet adhesion assay (human platelet adhesion to type I collagen)
# T1 construct: endogenous in cells; host or cells: gel-filtered human platelets of a single donor
# Experimental: The inhibitory strength of the compounds of the present disclosure was analyzed as against platelet adhesion to type I collagen. Ninety-six well flat bottom microtiter plates (Immulon 2, Dynatech Laboratories, Chantilly, Va.) were coated with collagen, purified human fibrinogen, or bovine serum albumin, each dissolved in 50 mM NaHCO3 buffer, pH 8.0, containing 150 mM NaCl as previously described. See Bennett J S, Chan C, Vilaire G, Mousa S A, DeGrado W F. Agonist-Activated αvβ3 on Platelets and Lymphocytes Binds to the Matrix Protein Osteopontin. J Biol Chem. 272, 8137-814) (1997). Unoccupied protein binding sites on the wells were blocked with 5 mg/ml bovine serum albumin dissolved in the same buffer. Human platelets were isolated from blood anticoagulated with 0.1 volume 3.8% sodium citrate by gel-filtration using a 4 mM HEPES buffer, pH 7.4, containing 135 mM NaCl, 2.7 mM KCl, 5.6 mM glucose, 3.3 mM NaH2PO4, 0.35 mg/ml bovine serum albumin and various concentrations of CaCl2 or MgCl2 according to the experiment. One hundred μl aliquots of the gel-filtered platelet suspension containing 1-2×10^8 platelets were added to the protein-coated wells in the absence or presence of a platelet agonist. Following an incubation for 30 min at 37° C. without agitation, the plates were washed 4 times with the Tris-buffered NaCl, containing 2 mM MgCl2, pH 7.4, and the number of adherent platelets measured using the colorimetric assay reported by Bellavite P, Andrioli G, Guzzo P, et al. A colorimetric method for the measurement of platelet adhesion in microtiter plates. Anal Biochem. 216, 444-450 (1994). Briefly, 150 μl of a 0.1 M citrate buffer, pH 5.4, containing 5 mM p-nitrophenyl phosphate and 0.1% Triton X-100 was added to the wells after washing. After an incubation for 60 min at room temperature in the absence of ambient light, color was developed by the addition of 100 μl of 2N NaOH and, using EL800 Universal Microplate Reader (Bio-Tek Instruments, Inc., Winooski, Vt.), read in microtiter plate reader at 405 nm.
# The potencies of the compounds of the present disclosure were determined by testing the ability of a range of concentrations of each compound to inhibit human platelet adhesion to soluble collagen under static conditions. Owing to the fact that soluble collagen is a specific ligand for α2β1 integrin, this is an accepted method of assessing α2β1 inhibition on platelets.
# IC50 values were determined by using the platelets of a single donor. In cases where multiple assays were performed, the reported results reflect the average IC50 value derived from the separate assays.
# α1β1 = target: T2, α1β1 (Homo sapiens, UniProt P05556+P56199); test: Cell adhesion assay to assess specificity: α1-transfected K562 cells on collagen IV; conditions: read-out: % inhibition at 3 μM, α1β1
# T2 construct: Marcinkiewicz (Temple University, Philadelphia, Pa.); host or cells: K562
# Experimental: (§1) The ligands (3 μg/ml of collagen IV for […] or 3 μg/ml of collagen I for α2β1) for the test designed to assess the specificity of representative embodiments of the instant compounds for the α2β1 integrin were immobilized on 96-well flat microtiter plates (100 μl for each well) in PBS buffer solution overnight at 4° C. In the case of VCAM (3 μg/ml, for α4β1) and fibronectin (10 μg/ml, for α5β1), 20 mM acetic acid was used instead of PBS buffer solution. As those skilled in the art will recognize, VCAM is a known endothelial ligand for α4β1/VLA-4, and fibronectin is a known ligand for […]. In the case of α1β1 and α2β1, blocking was performed with 1% BSA in HBSS buffer solution containing Mg^2+ (but without Ca^2+) for 1 hour. In the case of α4β1 and α5β1, 1% BSA in HyQ HBSS buffer solution containing Ca^2+ and Mg^2+ was used. […] After centrifugation and washing with buffer solution containing 1% BSA, cells were re-suspended in same buffer solution (1×10^6 cells/ml) and incubated in the presence of a different concentration of inhibitors at room temperature for 15 minutes. Cells were added to the wells (100 μl/well) and incubated at 37° C. for 30 minutes. Unbound cells were washed out and bound cells were lysed by the addition of 0.5% Triton X-100.
# (§2) The K562 cells expressing α5β1 integrin, Jurkat cells expressing α4β1, and K562 cells transfected with α1 and α2 integrins were provided by Dr. C. Marcinkiewicz (Temple University, Philadelphia, Pa.).
# (§3) Plates were read using a Cytofluor 2350 fluorescence plate reader (Millipore, Bedford, Mass.) with a 485 nm (excitation) and 530 nm (emission).
# α2β1 = target: T3, α2β1 (Homo sapiens, UniProt P05556+P17301); test: Cell adhesion assay to assess specificity: α2-transfected K562 cells on collagen I
# T3 construct: Marcinkiewicz (Temple University, Philadelphia, Pa.); host or cells: K562
# Experimental: as §1, §2, §3
# α4β1 = target: T4, α4β1 (Homo sapiens, UniProt P05556+P13612); test: Cell adhesion assay to assess specificity: Jurkat cells on VCAM
# T4 construct: Jurkat cells expressing α4β1; Marcinkiewicz (Temple University, Philadelphia, Pa.); host or cells: Jurkat
# Experimental: as §1, §2, §3
# [1] = human platelet adhesion to type I (soluble, monomeric) collagen, static conditions, single donor, read-out: IC50
# T1 sequence (P17301 30-1181): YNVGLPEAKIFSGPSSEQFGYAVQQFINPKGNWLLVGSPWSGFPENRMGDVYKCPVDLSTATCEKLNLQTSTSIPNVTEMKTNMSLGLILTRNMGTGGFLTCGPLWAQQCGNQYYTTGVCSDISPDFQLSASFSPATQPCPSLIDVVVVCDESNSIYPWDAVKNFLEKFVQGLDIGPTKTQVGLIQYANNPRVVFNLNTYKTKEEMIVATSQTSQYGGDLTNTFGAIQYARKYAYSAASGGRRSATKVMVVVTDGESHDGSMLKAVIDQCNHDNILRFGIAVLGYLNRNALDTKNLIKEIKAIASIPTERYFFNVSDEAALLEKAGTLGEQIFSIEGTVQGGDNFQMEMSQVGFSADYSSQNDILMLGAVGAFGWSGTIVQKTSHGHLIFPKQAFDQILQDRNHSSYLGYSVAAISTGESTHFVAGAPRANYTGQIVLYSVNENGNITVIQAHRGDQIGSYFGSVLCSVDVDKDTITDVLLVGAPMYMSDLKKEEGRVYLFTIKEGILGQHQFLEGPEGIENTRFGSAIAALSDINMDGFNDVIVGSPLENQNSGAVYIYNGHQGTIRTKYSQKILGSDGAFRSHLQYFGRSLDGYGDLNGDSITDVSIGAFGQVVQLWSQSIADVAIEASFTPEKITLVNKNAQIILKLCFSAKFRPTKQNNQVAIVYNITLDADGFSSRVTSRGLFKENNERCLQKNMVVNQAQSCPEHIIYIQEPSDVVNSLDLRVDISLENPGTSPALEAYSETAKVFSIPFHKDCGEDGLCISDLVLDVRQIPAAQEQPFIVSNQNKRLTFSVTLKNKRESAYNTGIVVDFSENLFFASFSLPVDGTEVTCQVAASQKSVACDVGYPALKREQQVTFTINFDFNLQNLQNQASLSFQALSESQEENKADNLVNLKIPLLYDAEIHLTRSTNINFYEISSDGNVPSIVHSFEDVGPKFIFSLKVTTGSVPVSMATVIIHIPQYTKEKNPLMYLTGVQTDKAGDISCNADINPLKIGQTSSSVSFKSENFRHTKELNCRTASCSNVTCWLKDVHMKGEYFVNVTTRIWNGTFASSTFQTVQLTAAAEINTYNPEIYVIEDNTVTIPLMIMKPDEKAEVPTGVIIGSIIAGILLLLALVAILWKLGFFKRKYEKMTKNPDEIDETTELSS
# T1 sequence (P05556 21-798): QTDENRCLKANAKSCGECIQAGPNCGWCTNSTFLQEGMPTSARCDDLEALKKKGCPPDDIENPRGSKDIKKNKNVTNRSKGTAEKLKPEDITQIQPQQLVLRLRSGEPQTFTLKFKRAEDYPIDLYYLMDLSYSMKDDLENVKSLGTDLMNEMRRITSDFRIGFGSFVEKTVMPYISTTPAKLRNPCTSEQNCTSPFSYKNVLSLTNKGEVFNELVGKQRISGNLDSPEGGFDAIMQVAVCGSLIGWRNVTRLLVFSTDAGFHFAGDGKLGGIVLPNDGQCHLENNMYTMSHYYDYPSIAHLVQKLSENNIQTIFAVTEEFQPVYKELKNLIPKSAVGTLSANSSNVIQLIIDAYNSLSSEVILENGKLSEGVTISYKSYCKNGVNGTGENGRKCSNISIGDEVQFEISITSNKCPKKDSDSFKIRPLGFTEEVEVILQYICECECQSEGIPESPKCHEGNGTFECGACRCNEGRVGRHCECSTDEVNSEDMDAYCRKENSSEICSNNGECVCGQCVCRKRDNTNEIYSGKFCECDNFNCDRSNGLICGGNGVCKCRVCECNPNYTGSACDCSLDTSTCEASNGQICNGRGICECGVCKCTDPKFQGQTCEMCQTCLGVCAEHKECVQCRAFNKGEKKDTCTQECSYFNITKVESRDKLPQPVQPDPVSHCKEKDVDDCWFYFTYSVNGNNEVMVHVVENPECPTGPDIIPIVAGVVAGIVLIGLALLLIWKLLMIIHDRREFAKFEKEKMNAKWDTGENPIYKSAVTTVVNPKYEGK
# T4 sequence (P13612 34-1032): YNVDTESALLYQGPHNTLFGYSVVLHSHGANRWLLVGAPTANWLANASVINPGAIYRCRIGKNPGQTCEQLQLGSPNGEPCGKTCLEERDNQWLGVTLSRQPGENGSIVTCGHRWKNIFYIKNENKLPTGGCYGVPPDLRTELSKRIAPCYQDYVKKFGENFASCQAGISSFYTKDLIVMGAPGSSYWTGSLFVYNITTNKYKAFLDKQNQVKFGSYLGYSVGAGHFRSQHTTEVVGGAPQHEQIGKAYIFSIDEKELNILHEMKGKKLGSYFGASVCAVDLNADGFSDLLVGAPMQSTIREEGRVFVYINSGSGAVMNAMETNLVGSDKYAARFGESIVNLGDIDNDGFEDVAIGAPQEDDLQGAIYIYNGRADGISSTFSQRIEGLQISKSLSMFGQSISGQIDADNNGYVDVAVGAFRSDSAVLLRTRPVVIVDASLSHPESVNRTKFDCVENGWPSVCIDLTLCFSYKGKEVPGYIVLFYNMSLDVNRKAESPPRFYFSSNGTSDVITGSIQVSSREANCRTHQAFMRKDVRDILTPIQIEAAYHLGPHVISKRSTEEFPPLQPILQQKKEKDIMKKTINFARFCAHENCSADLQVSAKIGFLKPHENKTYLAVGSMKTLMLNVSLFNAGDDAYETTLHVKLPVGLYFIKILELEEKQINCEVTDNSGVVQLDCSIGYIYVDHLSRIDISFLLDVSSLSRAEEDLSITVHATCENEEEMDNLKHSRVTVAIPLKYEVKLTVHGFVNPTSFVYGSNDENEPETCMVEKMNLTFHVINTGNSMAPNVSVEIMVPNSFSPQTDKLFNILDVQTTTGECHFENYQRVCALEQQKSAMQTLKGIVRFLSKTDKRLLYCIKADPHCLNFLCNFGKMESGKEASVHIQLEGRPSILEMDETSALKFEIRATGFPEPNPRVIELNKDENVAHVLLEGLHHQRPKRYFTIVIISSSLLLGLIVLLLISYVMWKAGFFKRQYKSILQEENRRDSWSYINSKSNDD
# T4 sequence (P05556 21-798): as the sequence (P05556 21-798) above
# T3 sequence (P17301 30-1181): as the sequence (P17301 30-1181) above
# T3 sequence (P05556 21-798): as the sequence (P05556 21-798) above
# T2 sequence (P56199 29-1179): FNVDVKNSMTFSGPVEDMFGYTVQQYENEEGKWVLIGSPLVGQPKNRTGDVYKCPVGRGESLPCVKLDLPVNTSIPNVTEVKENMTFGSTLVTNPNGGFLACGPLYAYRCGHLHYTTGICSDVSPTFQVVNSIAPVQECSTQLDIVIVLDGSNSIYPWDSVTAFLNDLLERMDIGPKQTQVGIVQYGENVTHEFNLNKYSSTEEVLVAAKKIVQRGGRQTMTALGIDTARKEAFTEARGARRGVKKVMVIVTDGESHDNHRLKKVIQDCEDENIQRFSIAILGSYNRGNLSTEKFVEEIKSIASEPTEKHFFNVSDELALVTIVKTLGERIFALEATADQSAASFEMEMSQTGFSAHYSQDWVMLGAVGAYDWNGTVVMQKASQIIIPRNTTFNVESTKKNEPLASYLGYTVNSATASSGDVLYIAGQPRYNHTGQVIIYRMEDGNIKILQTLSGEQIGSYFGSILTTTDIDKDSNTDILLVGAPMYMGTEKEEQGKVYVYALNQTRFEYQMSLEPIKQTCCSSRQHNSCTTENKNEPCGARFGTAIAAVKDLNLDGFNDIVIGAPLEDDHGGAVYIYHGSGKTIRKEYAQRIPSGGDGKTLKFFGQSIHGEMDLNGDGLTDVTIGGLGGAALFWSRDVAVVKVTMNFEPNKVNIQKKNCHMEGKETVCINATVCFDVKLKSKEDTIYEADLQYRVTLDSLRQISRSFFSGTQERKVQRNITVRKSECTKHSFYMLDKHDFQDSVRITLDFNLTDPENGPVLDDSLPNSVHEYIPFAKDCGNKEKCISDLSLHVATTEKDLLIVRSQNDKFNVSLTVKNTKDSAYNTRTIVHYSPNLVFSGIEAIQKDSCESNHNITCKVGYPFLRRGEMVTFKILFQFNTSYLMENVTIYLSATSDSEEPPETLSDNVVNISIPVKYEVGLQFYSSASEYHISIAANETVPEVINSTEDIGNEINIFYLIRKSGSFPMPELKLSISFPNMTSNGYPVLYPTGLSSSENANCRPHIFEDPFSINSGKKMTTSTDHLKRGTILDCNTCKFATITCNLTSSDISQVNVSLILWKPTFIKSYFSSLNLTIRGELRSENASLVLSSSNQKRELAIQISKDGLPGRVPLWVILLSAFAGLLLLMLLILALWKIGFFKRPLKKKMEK
# T2 sequence (P05556 21-798): as the sequence (P05556 21-798) above
IC50 (α2β1 integrin; [1]),SMILES,further results
36 nM,"Cc1ccc(S(=O)(=O)N2CCC[C@H]2C(=O)N[C@@H](CNC(=O)NCc2ccccc2)C(=O)O)cc1 [Compound 27, 3-(3-Benzyl-ureido)-2-{[1-(toluene-4-sulfonyl)-pyrrolidine-2-carbonyl]-amino}-propionic acid] (Tos-Pro-[Dap]([CO-NHBn])-OH)",
1940 nM,O=C(NCc1ccccc1)NC[C@H](NC(=O)[C@@H]1CCCN1S(=O)(=O)c1cccc2ccccc12)C(=O)O [Compound 28],
900 nM,O=C(NCc1ccccc1)NC[C@H](NC(=O)[C@@H]1CCCN1S(=O)(=O)c1ccc2ccccc2c1)C(=O)O [Compound 29],inhibition at 3 µM (α1β1): 30%; IC50 (α2β1): 177 nM; IC50 (α4β1): 4330 nM
23 nM,"Nc1ccc(CNC(=O)NC[C@H](NC(=O)[C@@H]2CCCN2S(=O)(=O)c2ccccc2)C(=O)O)cc1 [Compound 30, 3-[3-(4-Amino-benzyl)-ureido]-2-[(1-benzenesulfonyl-pyrrolidine-2-carbonyl)-amino]-propionic acid]","IC50 (α2β1 integrin; platelets on collagen I, read-out: IC50 (nM), α2β1, Platelet, Collagen I): 23 nM; inhibition at 3 µM (α1β1): 22%; IC50 (α2β1): 102 nM; IC50 (α4β1): 1970 nM"
236 nM,"O=C(Cc1ccccc1)Nc1ccc(S(=O)(=O)N2CCC[C@H]2C(=O)N[C@@H](CNC(=O)NCc2ccccc2)C(=O)O)cc1 [Compound 32, 3-(3-Benzyl-ureido)-2-{[1-(4-phenylacetylamino-benzenesulfonyl)-pyrrolidine-2-carbonyl]-amino}-propionic acid]",
151 nM,"O=C(NCc1ccccc1)NC[C@H](NC(=O)[C@@H]1CCCN1S(=O)(=O)c1ccc(NC(=O)Nc2ccccc2)cc1)C(=O)O [Compound 33, 3-(3-Benzyl-ureido)-2-({1-[4-(3-phenyl-ureido)-benzenesulfonyl]-pyrrolidine-2-carbonyl}-amino)-propionic acid]",
50 nM,"O=C(NCc1ccccc1)NC[C@H](NC(=O)[C@@H]1CCCN1S(=O)(=O)c1ccc2ccccc2c1)C(=O)O [Compound 34, 3-(3-Benzyl-ureido)-2-{[1-(naphthalene-2-sulfonyl)-pyrrolidine-2-carbonyl]-amino}-propionic acid]",
107 nM,"O=C(NCc1ccccc1Cl)NC[C@H](NC(=O)[C@@H]1CCCN1S(=O)(=O)c1ccccc1)C(=O)O [Compound 35, 2-[(1-Benzenesulfonyl-pyrrolidine-2-carbonyl)-amino]-3-[3-(2-chloro-benzyl)-ureido]-propionic acid]",
296 nM,"O=C(NC[C@H](NC(=O)[C@@H]1CCCN1S(=O)(=O)c1ccccc1)C(=O)O)Nc1ccccc1 [Compound 36, 2-[(1-Benzenesulfonyl-pyrrolidine-2-carbonyl)-amino]-3-(3-phenyl-ureido)-propionic acid]",
367 nM,"O=C(CCc1ccccc1)NC[C@H](NC(=O)[C@@H]1CCCN1S(=O)(=O)c1ccccc1)C(=O)O [Compound 37, 2-[(1-Benzenesulfonyl-pyrrolidine-2-carbonyl)-amino]-3-(3-phenyl-propionylamino)-propionic acid]",
660 nM,"O=C(NC[C@H](NC(=O)[C@@H]1CCCN1S(=O)(=O)c1ccccc1)C(=O)O)c1ccccc1 [Compound 38, 2-[(1-Benzenesulfonyl-pyrrolidine-2-carbonyl)-amino]-3-benzoylamino-propionic acid]",
185 nM,"O=C(NC[C@H](NC(=O)[C@@H]1CCCN1S(=O)(=O)c1ccccc1)C(=O)O)OCc1ccccc1 [Compound 39, 2-[(1-Benzenesulfonyl-pyrrolidine-2-carbonyl)-amino]-3-benzyloxycarbonylamino-propionic acid]",
467 nM,"COc1ccccc1CNC(=O)NC[C@H](NC(=O)[C@@H]1CCCN1S(=O)(=O)c1ccccc1)C(=O)O [Compound 40, 2-[(1-Benzenesulfonyl-pyrrolidine-2-carbonyl)-amino]-3-[3-(2-methoxy-benzyl)-ureido]-propionic acid]",
160 nM,"COc1cccc(CNC(=O)NC[C@H](NC(=O)[C@@H]2CCCN2S(=O)(=O)c2ccccc2)C(=O)O)c1 [Compound 41, 2-[(1-Benzenesulfonyl-pyrrolidine-2-carbonyl)-amino]-3-[3-(3-methoxy-benzyl)-ureido]-propionic acid]",
367 nM,"CCCNC(=O)NC[C@H](NC(=O)[C@@H]1CCCN1S(=O)(=O)c1ccccc1)C(=O)O [Compound 42, 2-[(1-Benzenesulfonyl-pyrrolidine-2-carbonyl)-amino]-3-{3-propyl-ureido)-propionic acid]",
35 nM,"O=C(NCc1ccccc1)NC[C@H](NC(=O)[C@@H]1CCCN1S(=O)(=O)c1cc(F)cc(F)c1)C(=O)O [Compound 43, 3-(3-Benzyl-ureido)-2-{[1-(3,5-difluoro-benzenesulfonyl)-pyrrolidine-2-carbonyl]-amino}-propionic acid]",
70 nM,"CS(=O)(=O)c1ccc(S(=O)(=O)N2CCC[C@H]2C(=O)N[C@@H](CNC(=O)NCc2ccccc2)C(=O)O)cc1 [Compound 44, 3-(3-Benzyl-ureido)-2-{[1-(4-methanesulfonyl-benzenesulfonyl)-pyrrolidine-2-carbonyl]-amino}-propionic acid]",
185 nM,"CC(C)(C)NC(=O)NC[C@H](NC(=O)[C@@H]1CCCN1S(=O)(=O)c1ccccc1)C(=O)O [Compound 45, 2-[(1-Benzenesulfonyl-pyrrolidine-2-carbonyl)-amino]-3-(3-tert-butyl-ureido)-propionic acid]",
240 nM,"O=C(NCc1ccccc1)NC[C@H](NC(=O)[C@@H]1C[C@@H](OCc2ccccc2)CN1S(=O)(=O)c1ccccc1)C(=O)O [Compound 46, 2-[(1-Benzenesulfonyl-4-benzyloxy-pyrrolidine-2-carbonyl)-amino]-3-(3-benzyl-ureido)-propionic acid]",
34 nM,"O=C(NCc1ccccc1)NC[C@H](NC(=O)[C@@H]1C[C@@H](O)CN1S(=O)(=O)c1ccccc1)C(=O)O [Compound 47, 2-[(1-Benzenesulfonyl-4-hydroxy-pyrrolidine-2-carbonyl)-amino]-3-(3-benzyl-ureido)-propionic acid]",
39 nM,"O=C(NCc1ccccc1)NC[C@H](NC(=O)[C@@H]1CCCN1S(=O)(=O)c1cc(C(F)(F)F)cc(C(F)(F)F)c1)C(=O)O [Compound 49, 3-(3-Benzyl-ureido)-2-{[1-(3,5-bis-trifluoromethyl-benzenesulfonyl)-pyrrolidine-2-carbonyl]-amino}-propionic acid]",
56 nM,"O=C(NCc1ccccc1)NC[C@H](NC(=O)C1CCCCN1S(=O)(=O)c1ccccc1)C(=O)O (some centres unmarked) [Compound 51, 2-[(1-Benzenesulfonyl-piperidine-2-carbonyl)-amino]-3-(3-benzyl-ureido)-propionic acid]",
